Patent US12448388B2, “PRMT5 inhibitors and uses thereof” (Gilead Sciences, Inc., priority 2023, dated 2025)
In brackets after ≈: the same amount, converted by molar mass. Read-outs that look alike come from different tables or passages of the source.

Experiments:
[1] = Hepatocyte stability assay, human; format: in vitro ADME; settings: human hepatocytes, 1 μM
Protocol: BioreclamationIVT (Baltimore, MD) provided the cryopreserved hepatocytes, hepatocyte thawing (HT) medium, and Krebs-Henseleit buffer (KHB) medium. The stock solution concentration was 1 M in DMSO and was then diluted further in acetonitrile/water (1:1 v/v). All other chemicals were purchased from Sigma-Aldrich (St. Louis, MO) or Thermo Fisher Scientific (Waltham, MA).
The quench solution used to stop reactions in the hepatocyte incubations was comprised of 100% (v/v) acetonitrile. Internal Standard/Quench (IS/Q) solution used to stop reactions with the positive control also contained 200 nM Labetalol.
Metabolic Stability in Cryopreserved Hepatocytes: Test compounds, or the positive control metabolic substrate, was incubated in suspensions of cryopreserved hepatocytes at a final concentration of 1 μM. Vials containing cryopreserved hepatocytes were removed from liquid nitrogen and immediately immersed in a 37° C. water bath. The vials were swirled gently until the contents had thawed. They were then immediately emptied into 48 mL of pre-warmed thawing medium in a 50 mL conical tube. Cells remaining in the vial were re-suspended with 1.0 mL of pre-warmed thawing medium and added to the conical tube. The tube was capped and then gently inverted several times to re-suspend the hepatocytes. The cell suspension was centrifuged at 500×g for 10 minutes at room temperature and the supernatant discarded. The cell pellet was loosened by gently swirling the centrifuge tube. Non-supplemented KHB medium was added to obtain the appropriate target cell density. The viabilities of all cell preparations were ≥85%, assessed by Trypan blue dye exclusion.
For incubations, aliquots of hepatocyte suspension (250 μL containing a cell concentration of 2×10^6 cells/mL) were added to 250 μL of 2 μM substrate (test compound or positive control) in supplemented KHB in duplicate wells in a 24-well plate. Final concentration in the incubations were 1×10^6 cells/mL and 1 μM substrate. A cell-free control incubation (KHB only) was also included. The incubations were carried out with gentle shaking in a 37° C. incubator under a humid atmosphere of 95% air/5% CO2 (v/v). Aliquots (100 μL) were removed after 0, 1, 3, and 6 hours and added to 200 μL quenching solution. The samples were then placed on a shaker for 10 min followed by centrifugation at 3000×g for 20 min. The supernatant was transferred to a new plate and diluted with 100 μL of water to reduce the organic content and then placed on a shaker for 10 mins. Samples were injected and analyzed with methods described below.
Liquid Chromatography: Quantification of positive control and test compound was performed by analyte/internal standard peak area ratios (PAR) measured on a Thermo Scientific™ Q Exactive™ Hybrid Quadrupole-Orbitrap Mass Spectrometer MS/MS with an electrospray interface operating in positive ion mode. The mass spectrometer was coupled to a Dionex Ultimate® 3000 HPLC system. Samples (10 μL aliquots) were injected with a Leap Technologies HTC PAL autosampler. For positive control, the column used was a Thermo Scientific™ Hypersil GOLD™ HPLC column ([…], 50×2.1 mm). Mobile phase A consisted of 95% (v/v) water, 5% (v/v) acetonitrile, and contained 0.1% (v/v) formic acid (FA). Mobile phase B consisted of 95% (v/v) acetonitrile, 5% (v/v) water, and contained 0.1% (v/v) FA. Elution was achieved, at a flow rate of 0.5 mL/min, by a series of linear gradients: initial condition was 5% B at 0 min, isocratic for 20 seconds; then linear gradient to 95% B over 90 seconds, followed by isocratic for 60 seconds at 95% B, and re-equilibrated to initial conditions over 70 seconds.
Metabolic stabilities of positive control and test compound were determined by measuring the rates of disappearance of the parent with time by determining the % of parent remaining at time t (Ct) {Obach 1997}.
Data (% of parent remaining) were plotted on a semi-log scale and fitted using an exponential fit: […]

[2] = test system: HCT116 MTAP-deleted cell lines; assay: Cell viability assay (CellTiter-Glo, 7 days), HCT116 MTAP-deleted; format: cell-based; settings: for Selectivity: HCT116 WT CC50 versus HCT116 MTAP^del CC50; for plasma-adjusted CC50 (paCC50): paCC50 = CC50-HCT116-MTAP^del * (% free CCM/% free human plasma); for CC50: Homo sapiens, HCT116 MTAP-deleted
In short: (§1)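 Each PRMT5 inhibitor was tested as a dose response alongside tool compounds on the same plate. Incubation ran 7 days at 37 °C under 5% CO2, after which CellTiter-Glo luminescence was recorded and CC50 calculated.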

[3] = MDR1/BCRP assay: permeability in cPgp-KO-MDCK-WT cells; format: in vitro ADME; settings: dog, pH 7.4
In short: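 Compounds at 1 μM were dosed apically or basolaterally on 5-day confluent cPgp-KO-MDCK monolayers, HBSS/HEPES/glucose pH 7.4 donor and receiver with 1% BSA, duplicate wells. Receiver samples at 2 h were analysed by LC-MS/MS to give A→B and B→A Papp plus % recovery; TEER confirmed integrity.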

[4] = PBS solubility (kinetic solubility from DMSO stocks); format: physicochemical; settings: 22 °C, aqueous buffer, kinetic from dmso stock; 1x PBS pH 7.4, 1.0% DMSO, 24-hour incubation at ambient temperature
In short: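 Kinetic solubility in 1× PBS pH 7.4 with 1.0% final DMSO, maximum theoretical concentration 100 μM from 10 mM stock. After 24 h at ambient temperature (20.8-24.0 °C) the samples were vacuum-filtered and filtrates quantified by nitrogen detection against a calibration curve. Values were background-corrected and reported in μM and μg/mL.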

[5] = Cell viability assay (CellTiter-Glo, 7 days), HCT116 WT; format: cell-based; settings: human, HCT116 WT cells, 7 days of treatment, CTG
In short: as §1

[6] = HCT-116, 168 h, 7 days of treatment, CTG, read-out: CC50-HCT116-MTAP^del
[7] = HCT-116, cell viability, class symbols, read-out: CC50

| Compound | Human Predicted Hepatocyte CL [1] [L/h/kg] | Selectivity [2] | plasma-adjusted CC50 (paCC50) ([2]; HCT-116) [µM] | CC50 [2, 6] [µM] | CC50 [2, 7] [µM] | Papp A→B at 2 h, 1 µM [3] [nm/s] | solubility at 24 h [4] [µM] | CC50 at 7 days [5] [µM] |
| --- | --- | --- | --- | --- | --- | --- | --- | --- |
| [2H]C1([2H])CC[C@@H]2Oc3cc(C(F)(F)F)ccc3[C@@H]2N1C(=O)c1cc2c(cc1F)nc(N)c1cncn12 [Ff-121, (4-amino-7-fluoroimidazo[1,5-a]quinoxalin-8-yl)((4aS,9bS)-7-(trifluoromethyl)-3,4,4a,9b-tetrahydrobenzofuro[3,2-b]pyridin-1(2H)-yl-2,2-d2)methanone] | 0.48 | 153 | 0.106 | 0.003 | < 0.1 | 151 | 4 (≈ 1.89 µg/mL) | 0.459 |
| Nc1nc2cc(F)c(C(=O)N3CCC[C@@H]4Oc5cc(C(F)(F)F)ncc5[C@@H]43)cc2n2cncc12 [Ff-117, (4-amino-7-fluoroimidazo[1,5-a]quinoxalin-8-yl)((4aS,9bS)-7-(trifluoromethyl)-3,4,4a,9b-tetrahydrofuro[3,2-b:4,5-c′]dipyridin-1(2H)-yl)methanone] | 0.05 | 69 | 0.269 | 0.018 | < 0.1 | 113 | 54.7 (≈ 25.8 µg/mL) | 1.25 |
